Numbers after ± are expanded uncertainties.
Assay: xn = mol fraction of the nth substance listed
Conditions: Liquid, Vibrating tube method

C=CC [propene] + CC(C)O
mass density (325.09 K, 5370.7 kPa, x1 = 0.2011): 709.32 ± 0.74 kg/m3 | mass density (325.09 K, 5883.5 kPa, x1 = 0.2011): 709.98 ± 0.75 kg/m3 | mass density (325.09 K, 6336.2 kPa, x1 = 0.2011): 710.58 ± 0.75 kg/m3 | mass density (325.09 K, 6788.4 kPa, x1 = 0.2011): 711.17 ± 0.75 kg/m3 | mass density (325.09 K, 7346.6 kPa, x1 = 0.2011): 711.9 ± 0.75 kg/m3 | mass density (325.09 K, 7879.3 kPa, x1 = 0.2011): 712.57 ± 0.75 kg/m3 | mass density (325.09 K, 8392.5 kPa, x1 = 0.2011): 713.18 ± 0.75 kg/m3 | mass density (325.09 K, 8985.2 kPa, x1 = 0.2011): 713.89 ± 0.76 kg/m3 | mass density (325.09 K, 9587.7 kPa, x1 = 0.2011): 714.65 ± 0.76 kg/m3 | mass density (325.09 K, x1 = 0.2011): 703.01 ± 0.73 kg/m3 | mass density (325.13 K, 1747.5 kPa, x1 = 0.6478): 573.29 ± 0.62 kg/m3 | mass density (325.13 K, 2151.8 kPa, x1 = 0.6478): 574.52 ± 0.63 kg/m3 | mass density (325.13 K, 2607.5 kPa, x1 = 0.6478): 575.84 ± 0.63 kg/m3 | mass density (325.13 K, 3022.1 kPa, x1 = 0.6478): 577 ± 0.64 kg/m3 | mass density (325.13 K, 3422.7 kPa, x1 = 0.6478): 578.16 ± 0.64 kg/m3 | mass density (325.13 K, 3826.3 kPa, x1 = 0.6478): 579.23 ± 0.64 kg/m3 | mass density (325.13 K, 4289 kPa, x1 = 0.6478): 580.41 ± 0.64 kg/m3 | mass density (325.13 K, 4682.5 kPa, x1 = 0.6478): 581.48 ± 0.65 kg/m3 | mass density (325.13 K, 5094.6 kPa, x1 = 0.6478): 582.53 ± 0.65 kg/m3 | mass density (325.13 K, 5524.8 kPa, x1 = 0.6478): 583.59 ± 0.65 kg/m3 | mass density (325.13 K, 5972.2 kPa, x1 = 0.6478): 584.68 ± 0.66 kg/m3 | mass density (325.13 K, 6431 kPa, x1 = 0.6478): 585.75 ± 0.66 kg/m3 | mass density (325.13 K, 6923.3 kPa, x1 = 0.6478): 586.94 ± 0.66 kg/m3 | mass density (325.13 K, 7433.5 kPa, x1 = 0.6478): 588.03 ± 0.67 kg/m3 | mass density (325.13 K, 7935 kPa, x1 = 0.6478): 589.22 ± 0.67 kg/m3 | mass density (325.13 K, 8459.9 kPa, x1 = 0.6478): 590.39 ± 0.67 kg/m3 | mass density (325.13 K, 9024 kPa, x1 = 0.6478): 591.62 ± 0.68 kg/m3 | mass density (325.13 K, 9558.5 kPa, x1 = 0.6478): 592.78 ± 0.68 kg/m3 | mass density (325.13 K, x1 = 0.6478): 573.24 ± 0.62 kg/m3 | mass density (350.12 K, 2332.3 kPa, x1 = 0.5201): 576.59 ± 0.63 kg/m3 | mass density (350.12 K, 2731.4 kPa, x1 = 0.5201): 577.92 ± 0.63 kg/m3 | mass density (350.12 K, 2992.4 kPa, x1 = 0.5201): 578.85 ± 0.64 kg/m3 | mass density (350.12 K, 3218 kPa, x1 = 0.5201): 579.68 ± 0.64 kg/m3 | mass density (350.12 K, 3506.1 kPa, x1 = 0.5201): 580.58 ± 0.64 kg/m3 | mass density (350.12 K, 3765.6 kPa, x1 = 0.5201): 581.46 ± 0.64 kg/m3 | mass density (350.12 K, 4225.5 kPa, x1 = 0.5201): 582.95 ± 0.65 kg/m3 | mass density (350.12 K, 4550.6 kPa, x1 = 0.5201): 583.87 ± 0.65 kg/m3 | mass density (350.12 K, 4824.4 kPa, x1 = 0.5201): 584.73 ± 0.65 kg/m3 | mass density (350.12 K, 5103.7 kPa, x1 = 0.5201): 585.64 ± 0.65 kg/m3 | mass density (350.12 K, 5399.3 kPa, x1 = 0.5201): 586.54 ± 0.65 kg/m3 | mass density (350.12 K, 5715.5 kPa, x1 = 0.5201): 587.44 ± 0.66 kg/m3 | mass density (350.12 K, 5999.5 kPa, x1 = 0.5201): 588.29 ± 0.66 kg/m3 | mass density (350.12 K, 6303.9 kPa, x1 = 0.5201): 589.18 ± 0.66 kg/m3 | mass density (350.12 K, 6632.8 kPa, x1 = 0.5201): 590.1 ± 0.66 kg/m3 | mass density (350.12 K, 6975.5 kPa, x1 = 0.5201): 591.05 ± 0.67 kg/m3 | mass density (350.12 K, 7280 kPa, x1 = 0.5201): 591.94 ± 0.67 kg/m3 | mass density (350.12 K, 7641.3 kPa, x1 = 0.5201): 592.87 ± 0.67 kg/m3 | mass density (350.12 K, 7963.5 kPa, x1 = 0.5201): 593.76 ± 0.67 kg/m3 | mass density (350.12 K, 8312 kPa, x1 = 0.5201): 594.68 ± 0.68 kg/m3 | mass density (350.12 K, 8762.4 kPa, x1 = 0.5201): 595.82 ± 0.68 kg/m3 | mass density (350.12 K, 9211 kPa, x1 = 0.5201): 596.88 ± 0.68 kg/m3 | mass density (350.12 K, 9622.9 kPa, x1 = 0.5201): 597.92 ± 0.69 kg/m3 | mass density (350.12 K, x1 = 0.5201): 575.99 ± 0.62 kg/m3 | mass density (350.18 K, 1639.5 kPa, x1 = 0.2011): 677.13 ± 0.71 kg/m3 | mass density (350.18 K, 2070 kPa, x1 = 0.2011): 677.93 ± 0.71 kg/m3 | mass density (350.18 K, 2446.2 kPa, x1 = 0.2011): 678.64 ± 0.71 kg/m3 | mass density (350.18 K, 2689 kPa, x1 = 0.6478): 531.01 ± 0.6 kg/m3 | mass density (350.18 K, 2924.3 kPa, x1 = 0.2011): 679.5 ± 0.71 kg/m3 | mass density (350.18 K, 3126.3 kPa, x1 = 0.6478): 533.02 ± 0.61 kg/m3 | mass density (350.18 K, 3271.4 kPa, x1 = 0.2011): 680.17 ± 0.72 kg/m3 | mass density (350.18 K, 3675.3 kPa, x1 = 0.2011): 680.86 ± 0.72 kg/m3 | mass density (350.18 K, 3686.2 kPa, x1 = 0.6478): 535.68 ± 0.61 kg/m3 | mass density (350.18 K, 3914.3 kPa, x1 = 0.6478): 536.74 ± 0.62 kg/m3 | mass density (350.18 K, 4058.4 kPa, x1 = 0.2011): 681.6 ± 0.72 kg/m3 | mass density (350.18 K, 4203.2 kPa, x1 = 0.6478): 537.97 ± 0.62 kg/m3 | mass density (350.18 K, 4446.8 kPa, x1 = 0.2011): 682.32 ± 0.72 kg/m3 | mass density (350.18 K, 4484.6 kPa, x1 = 0.6478): 539.15 ± 0.62 kg/m3 | mass density (350.18 K, 4738.5 kPa, x1 = 0.6478): 540.5 ± 0.62 kg/m3 | mass density (350.18 K, 4791.3 kPa, x1 = 0.2011): 682.93 ± 0.72 kg/m3 | mass density (350.18 K, 5023.4 kPa, x1 = 0.6478): 541.63 ± 0.62 kg/m3 | mass density (350.18 K, 5171.9 kPa, x1 = 0.2011): 683.6 ± 0.72 kg/m3 | mass density (350.18 K, 5321.2 kPa, x1 = 0.6478): 542.86 ± 0.63 kg/m3 | mass density (350.18 K, 5557.4 kPa, x1 = 0.2011): 684.26 ± 0.73 kg/m3 | mass density (350.18 K, 5614 kPa, x1 = 0.6478): 543.95 ± 0.63 kg/m3 | mass density (350.18 K, 5938.9 kPa, x1 = 0.6478): 545.1 ± 0.63 kg/m3 | mass density (350.18 K, 6002 kPa, x1 = 0.2011): 684.96 ± 0.73 kg/m3 | mass density (350.18 K, 6268.4 kPa, x1 = 0.6478): 546.35 ± 0.64 kg/m3 | mass density (350.18 K, 6430.2 kPa, x1 = 0.2011): 685.69 ± 0.73 kg/m3 | mass density (350.18 K, 6622.1 kPa, x1 = 0.6478): 547.76 ± 0.64 kg/m3 | mass density (350.18 K, 6978.6 kPa, x1 = 0.6478): 548.98 ± 0.64 kg/m3 | mass density (350.18 K, 7071.2 kPa, x1 = 0.2011): 686.73 ± 0.73 kg/m3 | mass density (350.18 K, 7362 kPa, x1 = 0.6478): 550.27 ± 0.65 kg/m3 | mass density (350.18 K, 7570.5 kPa, x1 = 0.2011): 687.62 ± 0.73 kg/m3 | mass density (350.18 K, 7736.5 kPa, x1 = 0.6478): 551.56 ± 0.65 kg/m3 | mass density (350.18 K, 7944.1 kPa, x1 = 0.2011): 688.25 ± 0.74 kg/m3 | mass density (350.18 K, 8126.2 kPa, x1 = 0.6478): 552.91 ± 0.65 kg/m3 | mass density (350.18 K, 8386.8 kPa, x1 = 0.2011): 688.92 ± 0.74 kg/m3 | mass density (350.18 K, 8525.5 kPa, x1 = 0.6478): 554.11 ± 0.66 kg/m3 | mass density (350.18 K, 8826.8 kPa, x1 = 0.2011): 689.6 ± 0.74 kg/m3 | mass density (350.18 K, 8979.8 kPa, x1 = 0.6478): 555.58 ± 0.66 kg/m3 | mass density (350.18 K, 9279 kPa, x1 = 0.2011): 690.38 ± 0.74 kg/m3 | mass density (350.18 K, 9488 kPa, x1 = 0.6478): 557.04 ± 0.66 kg/m3 | mass density (350.18 K, 9779.6 kPa, x1 = 0.2011): 691.08 ± 0.74 kg/m3 | mass density (350.18 K, 9989.8 kPa, x1 = 0.6478): 558.59 ± 0.67 kg/m3 | mass density (350.18 K, x1 = 0.2011): 676.38 ± 0.7 kg/m3 | mass density (350.18 K, x1 = 0.6478): 530.66 ± 0.59 kg/m3

Source: the NIST ThermoML archive (doi:10.1021/je800017j)
